Laboratory results: patent publication US8952192B2, “Phosphorylated and branched dihydroxy-pentane-dione (DPD) analogs as quorum sensing inhibitors in bacteria” (University of Maryland, College Park, priority 2011, dated 2015)
“Also recorded” adds a separate entry of the source.

Test system: lsr expression in S. typhimurium (lsr-lacZ reporter strains)
Experiment: QS response (lsr expression): AI-2 dependent β-galactosidase production, Miller assay
Type: cell-based, Salmonella typhimurium
Protocol: The panel of C1-alkyl analogs was screened to identify QS modulators in the enteric bacteria E. coli and S. typhimurium. Transcription of the QS associated lsr operon, by using lsr-lacZ reporter strains (Table 2) which produce β-galactosidase in response to added AI-2 was monitored. In order to first establish if the analogs were agonists or antagonists in the QS circuit, the analogs were incubated with E. coli LW7 pLW11 and S. typhimurium MET715 (FIG. 19a-b) both of which are luxS^−. None of the analogs, except ethyl-DPD behaved as agonists for lsr expression. Previous studies investigating AI-2 antagonism in P. aeruginosa or in S. typhimurium were carried out using chemically synthesized AI-2 added to luxS^− cells. […] The same trends were obtained by adding a 1:1 ratio of enzymatically synthesized AI-2 and DPD analogs to the luxS^− strains E. coli LW7 pLW11 and S. typhimurium MET715 (FIG. 11a-b). None of the tested DPD analogs were bacteriocidal or bacteriostatic as the OD600 values of E. coli ZK126 pLW11 and S. typhimurium MET708 in the presence and absence of the analogs were similar (FIG. 10). Though the QS circuitry of the enteric organisms, E. coli and S. typhimurium are homologous they respond differently to the DPD analogs. The E. coli QS circuitry is susceptible to being silenced by a variety of DPD analogs of different shapes and sizes whereas in S. typhimurium, only a handful of DPD analogs could antagonize the action of AI-2. […] Isobutyl-DPD emerged as an effective and non-species-specific quencher; causing significant lsr expression knockdowns in both E. coli and S. typhimurium.
The QS response indicated by lsr gene expression was analyzed in pure culture studies by culturing E. coli LW7 pLW11, E. coli ZK126 pLW11 and S. typhimurium MET708, S. typhimurium MET715 overnight in LB medium supplemented with appropriate antibiotics as stated previously. These cells were then diluted into fresh LB medium (with antibiotics) and grown to an OD600 of 0.8-1.0 at 30° C., 250 rpm. Cells were then collected by centrifugation at 10,000×g for 10 minutes, and resuspended in 10 mM phosphate buffer. AI-2 (20 μM) and the respective analog (20 μM) were added to the E. coli or S. typhimurium suspension for 2 hours at 37° C. AI-2 dependent β-galactosidase production was quantified by the Miller assay.
The QS response indicated by lsr gene expression was analyzed in pure culture studies by culturing E. coli LW7 pLW11 and S. typhimurium MET715 overnight at 30° C. in LB medium supplemented with appropriate antibiotics as stated previously. These cells were then diluted into fresh LB medium (with antibiotics) and grown to an OD600 of 0.4-0.8 at 37° C., 250 rpm. Cells were then collected by centrifugation at 10,000×g for 10 min and resuspended in 10 mM phosphate buffer. AI-2 (20 μM) and the respective analog (20 μM) were added to the E. coli or S. typhimurium suspension for 2 h at 37° C. AI-2 dependent β-galactosidase production was quantified by the Miller assay.
The QS response indicated by lsr gene expression was analyzed in pure culture studies by culturing E. coli LW7 pLW11, E. coli ZK126 pLW11 and S. typhimurium MET708, S. typhimurium MET715 overnight in LB medium individually supplemented with appropriate antibiotics, as specified above. These cells were diluted into fresh LB medium (with antibiotics) and grown to an OD600 of 0.8-1.0 at 30° C., 250 rpm. Cells were collected by centrifugation at 10,000×g for 10 minutes, and resuspended in 10 mM phosphate buffer. AI-2 (20 μM) and the respective analog (20 μM) were added to the E. coli or S. typhimurium suspension for 2 hours at 37° C. AI-2 dependent β-galactosidase production was quantified by the Miller assay.

CC(C)CC(=O)C(=O)[C@@H](O)CO [Isobutyl-DPD, isobutyl-DPD]
effect on native lsr expression (QS response) (S. typhimurium MET708 (luxS+), cells produce their own AI-2): significant knocked down; also recorded: significantly inhibited signaling
decrease of lacZ expression (S. typhimurium MET715 (LuxS−), 20 μM AI-2 + 20 μM analog): about 50%
IC50 (concentration reducing lsr expression (β-galactosidase production) to 50% in the presence of 20 μM exogenously added synthetic DPD, read-out: IC50 of analog (nM) to inhibit QS in S. typhimurium): 20000 nM
